Laboratory results as given in patent publication US9975852B2, “Quinoline sulfonyl derivatives and uses thereof” (Health Sciences North Research Institute, priority 2013, dated 2018).

Tests used:
Body weight of CD-1 mice = format: in vivo; conditions: 25 mg/kg/week VR-23 i.p.
HeLa = test: SRB antiproliferative assay, HeLa; format: cell-based; conditions: Homo sapiens
Protocol: Antiproliferative effects were determined by a sulforhodamine B (SRB) based protocol. For a typical screening experiment, 5,000-10,000 cells were inoculated into 100 μl medium per well of a 96-well microtiter plate as described previously. Briefly, after the inoculation, the microtiter plate was incubated at 37° C., 5% CO2, 95% air and 100% relative humidity for 24 h, prior to addition of experimental drugs. Some of the sample wells were fixed with 25 μl of 50% trichloroacetic acid (TCA) as a control of the cell population for each cell line at the time of drug addition (Tz). An aliquot of the frozen stock was thawed and diluted to the desired final maximum test-concentration with complete medium. […] The cells “stained” with SRB were solubilized with 10 mM trizma base, and the absorbance was read on an automated plate reader at a wavelength of 515-564 nm. The relative growth rate (%) was calculated for each of the compound concentrations according to the following formula: (Ti−Tz)/(C−Tz)×100 In the formula, time zero (Tz), control growth (C), and OD for different concentration of tested compounds (Ti). […] Values were calculated for each of these parameters if the level of activity was reached. However, if the effect was not reached or was exceeded, the value for that parameter was expressed as greater or less than the maximum or minimum concentration tested. […]

HeLa S3 cells = test: Confocal microscopy of spindle poles, centrosomes and cytoskeleton, HeLa S3 cells; format: cell-based
Excerpt: All immunocytochemistry experiments were visualized by confocal microscopy using a Zeiss 510 Meta laser scanning microscope (Carl Zeiss) equipped with a 63× objective lens, unless otherwise specified herein. Three lasers were utilized for excitation with the following band pass filter settings used for detection: Argon 488 nm (band pass 505-530), HeNe 543 nm (long pass 560) and 633 nm (long pass 650). All images were captured and analyzed using LSM 510 software included with the microscope (LSM Image Examiner™, Carl Zeiss).
The synchronization at the G1/S border (more accurately at the beginning of S phase) was achieved by double thymidine block (DT). Briefly, exponentially growing cells are treated with 2.0 mM thymidine for 18 hours, followed by incubation for 11 hours in drug-free complete medium, by which time most cells are at mid-late G1 phase. The cells are then incubated for another 14 hours in 2.0 mM thymidine to arrest them at the G1/S border. To arrest cells at the G2/M phase, cells were maintained for 18 hours in complete medium containing nocodazole (50 ng/ml). Both these synchronization are reversible.
VR-23 caused the formation of multiple spindle poles during late G1 phase in HeLa S3 cells (FIG. 9). HeLa S3 cells were synchronized at G2/M by nocodazole (50 ng/ml, 18 hours), followed by incubation for 6 hours in drug-free medium (at which time they were at G1) (see, e.g., FIG. 8). Cells were then incubated in the absence (control) or presence of 5 μM VR-23 for additional 6 hours (see flow cytometry profile in FIG. 8). […] Note the presence of uneven cell sizes (arrows) which may have been generated as a result of nondisjuctional chromosome segregation during mitosis.
Exponentially growing HeLa S3 cells were treated with 5 μM VR-23 for 6 hours, fixed, stained with an antibody specific for α-tubulin and then examined by confocal fluorescent microscopy for changes to their cytoskeletal structure. Sham denotes that the sample was treated exactly the same as VR-23 sample, except that they were not exposed to VR-23. […] HeLa S3 cells were treated with 2 mM thymidine for 18 hours, followed by incubation for 11 hours in drug-free complete medium, by which time most cells were at mid-late G1 phase. The cells were then incubated for another 14 hours in 2.0 mM thymidine in the absence (control) or presence of 10 μM VR-23. Under these conditions, cells are trapped in the beginning of S phase by a second thymidine block. No centrosome was amplified in the control, while over 87% of VR-23 treated cells analyzed contained multiple centrosomes.
HeLa S3 cells synchronized at the G1/S border by DT treatment were released into cell cycle for 1-6 hours in the absence (control) (FIG. 13A) or presence (FIG. 13B) of VR-23, followed by confocal microscopy. Centrosome amplification was manifested by 3 hour post-DT, although supernumerary started to form by 2 hour post-DT (solid arrows). (Due to experimental variations, centrosome amplification is not visible by 2 hours in all instances). […] More than 70% of cells exposed to VR-23 for 12 hours during S-G2/M contained multiple centrosomes, compared to less than 4% in the control. At least 200 cells were counted for each sample, and each experiment was repeated at least three times.
HeLa S3 cells synchronized at G1/S by DT were released into normal medium for 6 hours (cells reached ˜G2/M), at which time they were exposed to VR-23 for additional 6 hours. Solid arrows denote spindle assembly complexes. […] Triple MTOC/Three-way-pull phenotype comprises usually more than 50-60% of the total population. The “No attachment” phenotype is usually observed when DNA is not completely condensed.

[1] = VR-23 for 6 hours from 6 hours post-DT

## O=[N+]([O-])c1ccc(S(=O)(=O)N2CCN(c3ccnc4cc(Cl)ccc34)CC2)c([N+](=O)[O-])c1 [Compound 1, 7-Chloro-4-(4-(2,4-dinitrophenylsulfonyl)piperazin-1-yl)quinoline]
Body weight of CD-1 mice
  Ill effects by changes in body weights: did not show any ill effects
HeLa
  IC50: 4.4 ± 3 µM
HeLa S3 cells; 5 μM VR-23, 6 hours, late G1
  Cells with multiple spindle phenotype: 44.4%
HeLa S3 cells; 5 μM VR-23 for 6 hours, α-tubulin staining
  Cytoskeletal formation: caused abnormal cytoskeletal formation
HeLa S3 cells; 10 μM VR-23 during second thymidine block, 14 hours
  Cells containing multiple centrosomes: over 87%
HeLa S3 cells; 3 hours post DT
  Number of cells with multiple centrosomes: 41 ± 11.8
HeLa S3 cells; 6 hours post DT
  Number of cells with multiple centrosomes: 55.2 ± 16.7
HeLa S3 cells; 12 hours post DT
  Number of cells with multiple centrosomes: 73.2 ± 1.0
HeLa S3 cells; [1]
  Mitotic cells among 352 cells counted: 34.1%
  Mitotic cells with abnormal chromosome segregation: 78.3%
  Triple MTOC/Three-way-pull phenotype, share of total population: 50-60%
HeLa S3 cells; exposed to VR-23 for 12 hours during S-G2/M
  Cells containing multiple centrosomes: More than 70%
